Reference: ChEMBL document CHEMBL1156181, “B-Raf kinase inhibitors: hit enrichment through scaffold hopping” (Bioorg Med Chem Lett, 2010)
Blank lines part the entries; values can stand above or below the compound they belong to.

Legend:
[1] = molecular target: Serine/threonine-protein kinase B-raf (Homo sapiens, UniProt P15056); assay: Inhibition of B-Raf
A-375 = assay: Growth inhibition of human A375 cells; assay type: functional, cell-based
[2] = molecular target: Tyrosine-protein kinase BTK (Homo sapiens, UniProt Q06187); assay: Inhibition of BTK
[3] = molecular target: Serine/threonine-protein kinase mTOR (Homo sapiens, UniProt P42345); assay: Inhibition of mTOR
[4] = molecular target: Proto-oncogene tyrosine-protein kinase Src (Homo sapiens, UniProt P12931); assay: Inhibition of SRC
[5] = molecular target: Tyrosine-protein kinase Lyn (Homo sapiens, UniProt P07948); assay: Inhibition of LYN
[6] = Growth inhibition of human WM266.4 cells; assay type: functional, cell-based; conditions: WM 266-4
[7] = molecular target: T1, Tyrosine-protein kinase ITK/TSK (Homo sapiens, UniProt Q08881); assay: Inhibition of ITK
T1 sequence (Q08881 whole entry): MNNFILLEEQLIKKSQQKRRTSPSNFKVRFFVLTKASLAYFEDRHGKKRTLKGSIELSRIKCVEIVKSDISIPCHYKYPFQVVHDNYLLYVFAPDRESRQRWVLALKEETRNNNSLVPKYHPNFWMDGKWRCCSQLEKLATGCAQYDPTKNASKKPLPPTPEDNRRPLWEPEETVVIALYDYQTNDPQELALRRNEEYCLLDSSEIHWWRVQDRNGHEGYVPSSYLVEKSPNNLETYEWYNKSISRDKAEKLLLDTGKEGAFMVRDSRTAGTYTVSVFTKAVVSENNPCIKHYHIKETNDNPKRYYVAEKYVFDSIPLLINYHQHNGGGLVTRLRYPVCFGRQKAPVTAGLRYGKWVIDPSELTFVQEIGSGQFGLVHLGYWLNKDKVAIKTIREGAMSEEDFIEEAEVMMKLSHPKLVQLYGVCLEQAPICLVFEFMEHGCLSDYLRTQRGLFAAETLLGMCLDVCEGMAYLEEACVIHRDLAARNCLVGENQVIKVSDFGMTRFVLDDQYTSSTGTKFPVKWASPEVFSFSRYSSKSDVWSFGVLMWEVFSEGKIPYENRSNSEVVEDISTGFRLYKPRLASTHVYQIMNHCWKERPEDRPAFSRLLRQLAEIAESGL

[8] = molecular target: T2, Inhibitor of nuclear factor kappa-B kinase subunit beta (Homo sapiens, UniProt O14920); assay: Inhibition of IKK2
T2 sequence (O14920 whole entry): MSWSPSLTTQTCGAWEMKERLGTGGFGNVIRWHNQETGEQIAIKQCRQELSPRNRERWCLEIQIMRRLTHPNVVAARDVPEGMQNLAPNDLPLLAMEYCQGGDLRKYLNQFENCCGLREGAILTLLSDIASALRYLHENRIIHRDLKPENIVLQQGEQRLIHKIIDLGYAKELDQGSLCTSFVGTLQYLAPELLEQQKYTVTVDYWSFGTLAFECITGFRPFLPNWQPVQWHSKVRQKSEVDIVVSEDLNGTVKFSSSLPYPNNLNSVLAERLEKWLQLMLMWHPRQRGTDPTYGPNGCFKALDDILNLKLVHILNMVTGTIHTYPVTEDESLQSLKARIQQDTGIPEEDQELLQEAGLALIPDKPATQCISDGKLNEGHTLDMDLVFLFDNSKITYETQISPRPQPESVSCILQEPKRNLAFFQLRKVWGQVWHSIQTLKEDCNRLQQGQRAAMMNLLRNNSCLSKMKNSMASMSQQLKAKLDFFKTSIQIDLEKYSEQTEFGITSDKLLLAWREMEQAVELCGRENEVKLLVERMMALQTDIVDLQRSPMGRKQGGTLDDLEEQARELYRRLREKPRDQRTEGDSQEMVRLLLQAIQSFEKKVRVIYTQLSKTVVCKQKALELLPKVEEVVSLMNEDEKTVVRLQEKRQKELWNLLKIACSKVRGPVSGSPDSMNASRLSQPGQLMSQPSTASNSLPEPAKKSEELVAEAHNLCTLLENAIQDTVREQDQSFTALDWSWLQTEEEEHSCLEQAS

Caco-2 = assay: Growth inhibition of human Caco-2 cells; assay type: functional, cell-based
[9] = molecular target: Protein kinase C theta type (Homo sapiens, UniProt Q04759); assay: Inhibition of PKCtheta
HT-29 = assay: Growth inhibition of human HT-29 cells; assay type: functional, cell-based
LoVo = assay: Growth inhibition of human LoVo cells; assay type: functional, cell-based
[10] = molecular target: Cyclin-dependent kinase 4 (Homo sapiens, UniProt P11802); assay: Inhibition of CDK4
[11] = molecular target: Phosphatidylinositol 4,5-bisphosphate 3-kinase catalytic subunit alpha isoform (Homo sapiens, UniProt P42336); assay: Inhibition of PI3Kalpha
[12] = molecular target: RAC-alpha serine/threonine-protein kinase (Homo sapiens, UniProt P31749); assay: Inhibition of AKT
Sequence of RAC-alpha serine/threonine-protein kinase (P31749 whole entry): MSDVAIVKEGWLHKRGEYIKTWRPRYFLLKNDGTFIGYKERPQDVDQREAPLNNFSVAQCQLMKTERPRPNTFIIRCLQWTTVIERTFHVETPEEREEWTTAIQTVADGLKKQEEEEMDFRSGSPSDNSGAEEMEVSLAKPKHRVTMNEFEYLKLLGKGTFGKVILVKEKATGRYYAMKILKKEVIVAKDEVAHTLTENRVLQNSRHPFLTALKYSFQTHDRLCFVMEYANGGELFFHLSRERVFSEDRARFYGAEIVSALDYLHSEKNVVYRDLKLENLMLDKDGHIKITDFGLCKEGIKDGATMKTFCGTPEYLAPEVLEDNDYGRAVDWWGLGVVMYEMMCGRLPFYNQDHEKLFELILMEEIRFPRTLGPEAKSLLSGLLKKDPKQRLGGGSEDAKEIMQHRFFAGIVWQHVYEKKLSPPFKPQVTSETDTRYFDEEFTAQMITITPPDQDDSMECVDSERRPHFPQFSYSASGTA

Sequence of Serine/threonine-protein kinase B-raf (P15056 whole entry): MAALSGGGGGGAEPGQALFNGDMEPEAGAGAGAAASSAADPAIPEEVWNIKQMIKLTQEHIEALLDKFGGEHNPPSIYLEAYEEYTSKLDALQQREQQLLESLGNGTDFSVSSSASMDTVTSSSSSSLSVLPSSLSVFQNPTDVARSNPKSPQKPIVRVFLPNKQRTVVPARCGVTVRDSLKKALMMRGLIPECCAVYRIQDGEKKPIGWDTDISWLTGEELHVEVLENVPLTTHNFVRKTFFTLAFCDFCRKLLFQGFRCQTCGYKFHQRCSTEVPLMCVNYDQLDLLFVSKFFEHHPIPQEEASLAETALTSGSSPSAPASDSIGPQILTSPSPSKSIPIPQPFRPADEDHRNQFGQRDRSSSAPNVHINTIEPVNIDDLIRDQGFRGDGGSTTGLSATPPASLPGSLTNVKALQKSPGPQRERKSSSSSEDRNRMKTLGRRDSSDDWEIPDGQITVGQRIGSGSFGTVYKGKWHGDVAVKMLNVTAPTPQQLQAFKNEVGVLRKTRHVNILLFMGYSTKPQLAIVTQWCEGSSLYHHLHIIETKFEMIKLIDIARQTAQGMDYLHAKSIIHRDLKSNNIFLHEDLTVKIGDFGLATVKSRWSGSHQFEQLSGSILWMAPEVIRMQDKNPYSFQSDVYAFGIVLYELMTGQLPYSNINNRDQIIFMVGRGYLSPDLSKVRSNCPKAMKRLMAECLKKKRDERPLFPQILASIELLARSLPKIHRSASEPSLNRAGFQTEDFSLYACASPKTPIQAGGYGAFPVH
Sequence of Proto-oncogene tyrosine-protein kinase Src (P12931 2-536 limits assumed): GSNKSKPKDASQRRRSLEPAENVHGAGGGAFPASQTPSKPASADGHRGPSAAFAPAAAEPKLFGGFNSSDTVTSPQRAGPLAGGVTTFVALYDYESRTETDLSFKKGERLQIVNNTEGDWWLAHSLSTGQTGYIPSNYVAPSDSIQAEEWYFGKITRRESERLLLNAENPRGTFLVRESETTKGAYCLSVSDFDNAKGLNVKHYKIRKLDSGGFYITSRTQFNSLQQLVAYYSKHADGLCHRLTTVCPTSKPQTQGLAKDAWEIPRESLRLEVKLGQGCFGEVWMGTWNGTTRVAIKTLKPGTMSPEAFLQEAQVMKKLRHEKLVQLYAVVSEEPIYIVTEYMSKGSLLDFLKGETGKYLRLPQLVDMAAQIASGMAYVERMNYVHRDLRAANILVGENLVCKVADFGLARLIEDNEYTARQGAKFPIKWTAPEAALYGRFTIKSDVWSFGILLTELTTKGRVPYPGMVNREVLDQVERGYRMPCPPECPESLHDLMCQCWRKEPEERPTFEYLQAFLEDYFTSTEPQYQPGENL
Sequence of Tyrosine-protein kinase BTK (Q06187 whole entry): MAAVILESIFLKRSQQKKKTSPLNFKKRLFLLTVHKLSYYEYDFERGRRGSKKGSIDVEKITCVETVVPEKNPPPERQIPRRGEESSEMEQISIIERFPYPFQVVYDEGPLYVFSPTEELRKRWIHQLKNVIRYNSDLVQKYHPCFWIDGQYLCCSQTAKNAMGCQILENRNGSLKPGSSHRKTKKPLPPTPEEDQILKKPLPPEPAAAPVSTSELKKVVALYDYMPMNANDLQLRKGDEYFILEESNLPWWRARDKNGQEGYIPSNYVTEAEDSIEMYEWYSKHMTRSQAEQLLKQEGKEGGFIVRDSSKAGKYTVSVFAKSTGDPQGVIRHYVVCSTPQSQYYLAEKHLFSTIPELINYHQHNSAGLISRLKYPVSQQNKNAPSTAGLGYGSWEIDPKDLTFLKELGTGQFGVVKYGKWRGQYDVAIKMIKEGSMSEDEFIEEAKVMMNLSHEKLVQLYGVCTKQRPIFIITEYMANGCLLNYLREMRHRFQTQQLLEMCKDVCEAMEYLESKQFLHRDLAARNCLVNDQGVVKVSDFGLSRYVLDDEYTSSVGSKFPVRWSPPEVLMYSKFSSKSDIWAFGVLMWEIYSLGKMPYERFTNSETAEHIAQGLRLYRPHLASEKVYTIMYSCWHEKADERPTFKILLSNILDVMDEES
Sequence of Protein kinase C theta type (Q04759 whole entry): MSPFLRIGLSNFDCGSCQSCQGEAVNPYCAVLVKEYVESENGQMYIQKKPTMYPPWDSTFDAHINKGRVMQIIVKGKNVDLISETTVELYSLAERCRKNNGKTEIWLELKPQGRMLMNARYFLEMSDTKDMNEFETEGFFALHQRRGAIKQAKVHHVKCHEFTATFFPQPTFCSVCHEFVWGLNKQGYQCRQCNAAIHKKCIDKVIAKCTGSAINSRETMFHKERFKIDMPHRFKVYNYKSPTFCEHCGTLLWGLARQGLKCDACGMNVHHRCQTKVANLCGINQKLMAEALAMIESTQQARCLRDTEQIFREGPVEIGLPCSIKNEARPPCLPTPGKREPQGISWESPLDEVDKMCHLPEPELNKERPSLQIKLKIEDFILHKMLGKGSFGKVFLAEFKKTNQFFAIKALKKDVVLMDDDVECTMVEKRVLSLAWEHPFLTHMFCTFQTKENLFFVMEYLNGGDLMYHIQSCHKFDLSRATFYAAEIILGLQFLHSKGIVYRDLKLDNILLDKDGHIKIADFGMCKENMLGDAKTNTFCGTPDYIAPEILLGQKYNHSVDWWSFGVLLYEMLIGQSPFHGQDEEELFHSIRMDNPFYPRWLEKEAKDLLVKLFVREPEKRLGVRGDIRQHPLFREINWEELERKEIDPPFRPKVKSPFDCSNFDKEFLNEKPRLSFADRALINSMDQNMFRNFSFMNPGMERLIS
Sequence of Cyclin-dependent kinase 4 (P11802 whole entry, canonical isoform): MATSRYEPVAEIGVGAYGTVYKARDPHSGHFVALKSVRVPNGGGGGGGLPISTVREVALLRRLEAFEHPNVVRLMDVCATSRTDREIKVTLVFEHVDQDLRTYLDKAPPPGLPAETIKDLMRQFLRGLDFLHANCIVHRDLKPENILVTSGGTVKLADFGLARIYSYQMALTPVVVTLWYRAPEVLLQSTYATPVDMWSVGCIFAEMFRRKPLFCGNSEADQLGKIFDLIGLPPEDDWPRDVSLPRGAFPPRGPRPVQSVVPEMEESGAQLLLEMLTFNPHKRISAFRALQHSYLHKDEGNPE
Sequence of Phosphatidylinositol 4,5-bisphosphate 3-kinase catalytic subunit alpha isoform (P42336 whole entry, canonical isoform): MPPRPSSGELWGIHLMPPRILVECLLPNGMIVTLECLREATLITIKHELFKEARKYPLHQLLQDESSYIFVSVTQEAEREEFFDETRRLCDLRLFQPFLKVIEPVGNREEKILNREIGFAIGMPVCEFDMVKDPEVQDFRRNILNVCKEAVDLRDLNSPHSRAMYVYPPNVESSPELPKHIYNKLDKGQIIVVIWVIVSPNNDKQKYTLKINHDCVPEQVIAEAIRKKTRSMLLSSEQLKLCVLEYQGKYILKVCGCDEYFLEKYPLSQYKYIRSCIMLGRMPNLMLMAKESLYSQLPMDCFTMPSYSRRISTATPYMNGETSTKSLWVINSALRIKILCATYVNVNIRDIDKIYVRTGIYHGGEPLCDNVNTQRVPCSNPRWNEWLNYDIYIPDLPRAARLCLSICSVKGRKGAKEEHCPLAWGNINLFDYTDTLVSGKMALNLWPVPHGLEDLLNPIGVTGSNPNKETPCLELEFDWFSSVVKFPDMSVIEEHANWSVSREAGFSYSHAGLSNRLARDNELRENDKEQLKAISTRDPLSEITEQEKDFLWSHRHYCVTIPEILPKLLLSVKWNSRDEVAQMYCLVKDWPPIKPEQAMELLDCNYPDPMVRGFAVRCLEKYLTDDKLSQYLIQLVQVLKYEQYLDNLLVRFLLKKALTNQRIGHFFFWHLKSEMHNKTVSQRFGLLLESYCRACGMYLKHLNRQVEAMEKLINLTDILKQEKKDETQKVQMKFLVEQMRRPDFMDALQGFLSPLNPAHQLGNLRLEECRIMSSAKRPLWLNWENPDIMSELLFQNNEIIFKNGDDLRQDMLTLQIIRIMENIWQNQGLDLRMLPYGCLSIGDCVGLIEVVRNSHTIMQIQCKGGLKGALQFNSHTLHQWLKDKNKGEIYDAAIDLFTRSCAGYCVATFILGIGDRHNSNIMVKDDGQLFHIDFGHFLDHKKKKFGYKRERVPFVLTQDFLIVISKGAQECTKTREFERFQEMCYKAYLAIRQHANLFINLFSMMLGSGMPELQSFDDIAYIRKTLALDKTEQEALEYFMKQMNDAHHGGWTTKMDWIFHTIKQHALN
Sequence of Tyrosine-protein kinase Lyn (P07948 whole entry): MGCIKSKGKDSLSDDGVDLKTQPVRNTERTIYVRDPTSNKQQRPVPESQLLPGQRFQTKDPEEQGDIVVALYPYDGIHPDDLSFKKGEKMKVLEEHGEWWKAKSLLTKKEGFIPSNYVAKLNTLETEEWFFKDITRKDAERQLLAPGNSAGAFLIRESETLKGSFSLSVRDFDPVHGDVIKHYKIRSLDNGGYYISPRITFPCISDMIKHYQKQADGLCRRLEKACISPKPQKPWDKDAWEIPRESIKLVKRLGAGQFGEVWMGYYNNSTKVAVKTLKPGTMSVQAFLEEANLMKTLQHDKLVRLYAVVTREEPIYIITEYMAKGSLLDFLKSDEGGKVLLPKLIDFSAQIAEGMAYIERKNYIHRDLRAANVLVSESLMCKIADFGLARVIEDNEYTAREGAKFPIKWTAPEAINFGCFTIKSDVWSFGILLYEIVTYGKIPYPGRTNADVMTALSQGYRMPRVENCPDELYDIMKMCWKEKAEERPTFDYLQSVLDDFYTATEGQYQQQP

SMILES: O=C(Nc1cccc(-c2ccnc3cc(-c4cccnc4)nn23)c1)c1cccc(C(F)(F)F)c1
IC50 [1]: > 10 µM

SMILES: N#Cc1cnc2sc(-c3ccncc3)cc2c1-c1cccc(NC(=O)c2cccc(C(F)(F)F)c2)c1
IC50 [1]: > 10 µM

SMILES: N#Cc1cnc2sc(-c3cccnc3)cc2c1-c1cccc(NC(=O)c2cccc(C(F)(F)F)c2)c1
IC50 [1]: > 10 µM

The next lines start with results.

IC50 (A-375): 0.23 µM
IC50 [2]: > 10 µM
IC50 [3]: > 10 µM
IC50 [4]: > 10 µM
IC50 [5]: > 10 µM
IC50 [7]: > 10 µM
IC50 [8]: > 10 µM
IC50 (Caco-2): 1.1 µM
IC50 [9]: > 10 µM
IC50 (HT-29): 0.15 µM
IC50 (LoVo): 0.3 µM
IC50 [10]: > 10 µM
IC50 [11]: > 10 µM
IC50 [12]: > 10 µM
SMILES: O=C(Nc1cccc(-c2ncnc3sc(-c4ccncc4)cc23)c1)c1cccc(C(F)(F)F)c1
IC50 [6]: 3.1 µM

IC50 [1]: > 10 µM
SMILES: N#Cc1cnc2cc(-c3cccnc3)sc2c1-c1cccc(NC(=O)c2cccc(C(F)(F)F)c2)c1

IC50 [1]: > 10 µM
SMILES: O=C(Nc1cccc(-c2ncnc3cc(-c4cccnc4)sc23)c1)c1cccc(C(F)(F)F)c1
